Laboratory results: the NIST ThermoML archive (doi:10.1016/j.fluid.2012.11.005)

Assay: excess molar enthalpy (molar enthalpy of mixing); xn = mol fraction of the nth substance listed
Conditions: 101 kPa, Liquid, Flow calorimetry

CC(C)CC(C)(C)C [2,2,4-trimethylpentane] + CCCCCO
x2 = 0
Conditions | excess molar enthalpy [kcal/mol]
298.15 K | 0
313.15 K | 0

CCCCCCC [heptane] + CCCCCO
x2 = 0
Conditions | excess molar enthalpy [kcal/mol]
298.15 K | 0
313.15 K | 0

CCCCCO [pentan-1-ol] + CC(C)CC(C)(C)C
excess molar enthalpy [kcal/mol]
Conditions | 298.15 K | 313.15 K
x1 = 0.0508 | 0.0899 | –
x1 = 0.051 | – | 0.124
x1 = 0.0999 | 0.112 | –
x1 = 0.1003 | – | 0.155
x1 = 0.1501 | 0.126 | –
x1 = 0.1506 | – | 0.174
x1 = 0.2008 | 0.137 | –
x1 = 0.2019 | – | 0.187
x1 = 0.25 | 0.143 | –
x1 = 0.2512 | – | 0.194
x1 = 0.2999 | 0.148 | –
x1 = 0.3012 | – | 0.199
x1 = 0.3516 | 0.148 | –
x1 = 0.3517 | – | 0.2
x1 = 0.4025 | 0.147 | –
x1 = 0.4026 | – | 0.199
x1 = 0.4514 | 0.145 | 0.194
x1 = 0.5025 | 0.139 | –
x1 = 0.5026 | – | 0.187
x1 = 0.5516 | 0.131 | –
x1 = 0.5517 | – | 0.177
x1 = 0.6025 | 0.121 | –
x1 = 0.6026 | – | 0.164
x1 = 0.6513 | 0.109 | 0.148
x1 = 0.7015 | 0.0951 | –
x1 = 0.7016 | – | 0.13
x1 = 0.7512 | 0.0802 | –
x1 = 0.7513 | – | 0.11
x1 = 0.8003 | 0.064 | 0.088
x1 = 0.8503 | 0.048 | 0.0654
x1 = 0.9008 | 0.0311 | 0.0423
x1 = 0.9503 | 0.0147 | 0.0205
x1 = 1 | 0 | 0

CCCCCO [pentan-1-ol] + CCCCCCC
excess molar enthalpy [kcal/mol]
Conditions | 298.15 K | 313.15 K
x1 = 0.0484 | – | 0.113
x1 = 0.0563 | 0.088 | –
x1 = 0.0981 | – | 0.148
x1 = 0.1109 | 0.111 | –
x1 = 0.149 | – | 0.165
x1 = 0.1664 | 0.125 | –
x1 = 0.1985 | – | 0.177
x1 = 0.2203 | 0.134 | –
x1 = 0.2491 | – | 0.187
x1 = 0.2749 | 0.141 | –
x1 = 0.2983 | – | 0.19
x1 = 0.3279 | 0.145 | –
x1 = 0.3483 | – | 0.192
x1 = 0.3793 | 0.146 | –
x1 = 0.3991 | – | 0.186
x1 = 0.4314 | 0.144 | –
x1 = 0.4484 | – | 0.186
x1 = 0.4818 | 0.139 | –
x1 = 0.4984 | – | 0.177
x1 = 0.5328 | 0.131 | –
x1 = 0.5488 | – | 0.166
x1 = 0.5822 | 0.122 | –
x1 = 0.5977 | – | 0.159
x1 = 0.6281 | 0.11 | –
x1 = 0.6489 | – | 0.144
x1 = 0.6765 | 0.0984 | –
x1 = 0.7003 | – | 0.124
x1 = 0.7235 | 0.0849 | –
x1 = 0.7483 | – | 0.106
x1 = 0.7725 | 0.071 | –
x1 = 0.7981 | – | 0.0845
x1 = 0.8182 | 0.0576 | –
x1 = 0.8497 | – | 0.0637
x1 = 0.8643 | 0.0427 | –
x1 = 0.8995 | – | 0.042
x1 = 0.9104 | 0.0282 | –
x1 = 0.9491 | – | 0.0196
x1 = 0.9552 | 0.0138 | –
x1 = 1 | 0 | 0
